Results as given in patent US20090227533A1, “miR-34 Regulated Genes and Pathways as Targets for Therapeutic Intervention” (priority 2007, published 2009).

How the values were obtained:
[1] = system: H226 cells; assay: Alamar Blue proliferation assay, lung cancer cells (electroporation); format: cell-based, human; conditions: hsa-miR-34a (head: 30 nM), electroporation, 72 hours, normalized to NC (100%)
Excerpt: The inventors assessed the therapeutic effect of hsa-miR-34a for lung cancer by using eight individual lung cancer cell lines. To measure cellular proliferation of lung cancer cells, the following non-small cell lung cancer (NSCLC) cells were used: cells derived from lung adenocarcinoma (A549, H522, Calu-3, HCC2935), cells derived from lung squamous cell carcinoma (H226), cell derived from lung adenosquamous cell carcinoma (H596), cells derived from lung bronchioalveolar carcinoma (H1650), and cells derived from lung large cell carcinoma (H460). Synthetic hsa-miR-34a (Pre-miR™-hsa-miR-34a, Ambion cat. no. AM17100) or negative control (NC) miRNA (Pre-miR™ microRNA Precursor Molecule-Negative Control #2; Ambion cat. no. AM17111) was delivered via lipid-based transfection into A549, H522, H596, Calu-3, HCC2935, H1650, H460 cells and via electroporation into H226 cells.
Lipid-based reverse transfections were carried out in triplicate according to a published protocol (Ovcharenko et al., 2005) and the following parameters: cells (5,000-12,000 per 96 well), 0.1-0.2 μl Lipofectamine™ 2000 (cat. no. 11668-019, Invitrogen Corp., Carlsbad, Calif., USA) in 20 μl OptiMEM (Invitrogen), 30 nM final concentration of miRNA in 100 μl. Electroporation of H226 cells was carried out using the BioRad Gene Pulser Xcell™ instrument (BioRad Laboratories Inc., Hercules, Calif., USA) with the following settings: 5×10^6 cells with 5 μg miRNA in 200 μl OptiMEM (1.6 μM miRNA), square wave pulse at 250 V for 5 ms. Electroporated H226 cells were seeded at 7,000 cells per 96-well in a total volume of 100 μl. All cells except for Calu-3 cells were harvested 72 hours post transfection or electroporation for assessment of cellular proliferation. Calu-3 cells were harvested 10 days post transfection. Proliferation assays were performed using Alamar Blue (Invitrogen) following the manufacturer's instructions. As a control for inhibition of cellular proliferation, siRNA against the motor protein kinesin 11, also known as Eg5, was used. […]

[2] = system: PPC-1 prostate cancer xenograft; assay: Tumor growth of human prostate cancer xenograft; format: in vivo, NOD/SCID mice
Procedure: Therefore, hsa-miR-34a is likely to interfere with prostate tumor growth in the animal. To explore this possibility, the therapeutic potential of synthetic hsa-miR-34a miRNA was evaluated in the animal using the PPC-1 human prostate cancer xenograft. 5×10^6 PPC-1 cells per animal were electroporated with 1.6 μM synthetic hsa-miR-34a or negative control miRNA (Pre-miR™-hsa-miR-34a, Ambion cat. no. AM17100; NC, Pre-miR™ microRNA Precursor Molecule-Negative Control #2, Ambion cat. no. AM17111), mixed with BD Matrigel™, (BD Biosciences; San Jose, Calif., USA; cat. no. 356237) in a 1:1 ratio and implanted subcutaneously into the lower back of NOD/SCID mice (Charles River Laboratories, Inc.; Wilmington, Mass., USA). A group of 7 mice was injected with hsa-miR-34a treated PPC-1 cells, and a group of 7 animals was injected with PPC-1 cells treated with negative control miRNA. To maintain steady levels of miRNA, 6.25 μg of each hsa-miR-34a or negative control miRNA conjugated with the lipid-based siPORT™ amine delivery agent (Ambion, Austin, Tex.; cat. no. AM4502) were repeatedly administered on days 7, 13, 20, and 25 via intra-tumoral injections. Given an average mouse weight of 20 g, this dose equals 0.3125 mg/kg. Tumor growth was monitored by taking caliper measurements every 1-2 days for 32 days. Tumor volumes were calculated using the formula, Volume=length×width×width/2, in which the length is greater than the width, and plotted over time (FIG. 7). Standard deviations are shown in the graph. All data points had p values<0.01. p values were as low as 1.86×10^−9 for data obtained on day 22, indicating statistical significance.

[3] = system: PPC-1 tumors; assay: Histology and immunohistochemistry (Ki-67, caspase 3) of xenograft tumors; format: in vivo, NOD/SCID mice
Procedure: To gain further insight into the biological status of these cells, immunohistochemistry analyses specific for the proliferation marker Ki-67, as well as caspase 3, an indicator of apoptosis were performed.

[4] = system: lung cancer cells (A549); conditions: cited from earlier work
[5] = system: cervical cancer cells (HeLa); conditions: cited from earlier work
[6] = system: normal human T cells; conditions: cited from earlier work
[7] = areas with viable cells in treated PPC-1 tumors

With “hsa-miR-34a: synthetic miRNA; mature sequence UGGCAGUGUCUUAGCUGGUUGUU (MIMAT0000255; SEQ ID NO:1) (synthetic miRNA, chemistry not given here)” the “% proliferation” value [1] was 89.50%, the average tumor volume ([2]; day 32, cells electroporated with 1.6 μM, then 6.25 μg intratumoral on days 7, 13, 20, 25, n=7) was 151 mm^3 and the “effect of each single administration on tumor volumes” value ([2]; mouse, in vivo) was “acute regression of tumor volumes”. The “tumor growth of PPC-1 xenograft” value ([2]; repeated dosing) was “blocked tumor growth”, the “tumor histology (hematoxylin and eosin)” value ([3]; PPC-1 tumors) was “consisted mostly of matrigel with cellular debris and sparsely distributed cells” and the “Ki-67 (proliferation marker) immunohistochemistry” value [3, 7] was “reduced levels”. The “caspase 3 (apoptosis indicator) immunohistochemistry” value [3, 7] was “increased levels”, the proliferation [4] was “inhibits the proliferation” and the proliferation [5] was “inhibits the proliferation”. For the same substance, the proliferation [6] was “no anti-proliferative effect”.
